In brackets after ≈: the same amount, converted by molar mass. Activity calls are given as the source filed them. No cut-off for these calls is given here.
How the values were obtained:
3T3-L1 [1] = assay: Hypoglycemic activity in mouse 3T3L1 cells assessed as increase in glucose consumption at 50 ug/ml after 24 hrs by 2-deoxyglucose uptake assay; format: functional, cell-based
3T3-L1 [2] = assay: Hypoglycemic activity in mouse 3T3L1 cells assessed as increase in glucose consumption at 25 ug/ml after 24 hrs by 2-deoxyglucose uptake assay; format: functional, cell-based
3T3-L1 [3] = assay: Effect on lipid accumulation in mouse 3T3L1 cells at 20 ug/ml for 7 days by Oil Red O dye; format: functional, cell-based
3T3-L1 [4] = assay: Hypoglycemic activity in mouse 3T3L1 cells assessed as increase in glucose consumption at 12.5 ug/ml after 24 hrs by 2-deoxyglucose uptake assay; format: functional, cell-based
3T3-L1 [5] = assay: Hypoglycemic activity in mouse 3T3L1 cells assessed as increase in glucose consumption at 50 ug/ml after 24 hrs by 2-deoxyglucose uptake assay
[6] = Antioxidant activity assessed as ABTS radical scavenging activity; format: physicochemical
[7] = Antioxidant activity assessed as DPPH radical scavenging activity; format: physicochemical

| EC50 [6] [µg/mL] | EC50 [7] [µg/mL] | Structure (SMILES) | Activity (3T3-L1 [1]) | Activity (3T3-L1 [2]) | Activity (3T3-L1 [3]) | Activity (3T3-L1 [4]) | Activity (3T3-L1 [5]) |
| --- | --- | --- | --- | --- | --- | --- | --- |
|  |  | C=CCCCCCC(O)C(O)C(O)C#CC#CCCC (stereo not drawn) | Active | Active | inactive | Active |  |
|  |  | O=c1cc(-c2ccc(O)cc2)oc2cc(O)cc(O)c12 |  |  |  |  | inactive |
| 0.19 (≈ 0.913 µM) | 0.18 (≈ 0.864 µM) | CCOC(=O)/C=C/c1ccc(O)c(O)c1 [ETHYL CAFFEATE] | Active |  |  |  |  |

From ChEMBL document CHEMBL3352648, “Bioactive constituents of Cirsium japonicum var. australe” (J Nat Prod, 2014)
